Source: ChEMBL document CHEMBL1143209, “Ohioensins F and G: protein tyrosine phosphatase 1B inhibitory benzonaphthoxanthenones from the Antarctic moss Polytrichastrum alpinum” (Bioorg Med Chem Lett, 2008)

Experiments:
[1] = molecular target: T1, Tyrosine-protein phosphatase non-receptor type 1 (Homo sapiens, UniProt P18031); test: Inhibition of human recombinant PTP1B
T1 sequence (P18031 whole entry): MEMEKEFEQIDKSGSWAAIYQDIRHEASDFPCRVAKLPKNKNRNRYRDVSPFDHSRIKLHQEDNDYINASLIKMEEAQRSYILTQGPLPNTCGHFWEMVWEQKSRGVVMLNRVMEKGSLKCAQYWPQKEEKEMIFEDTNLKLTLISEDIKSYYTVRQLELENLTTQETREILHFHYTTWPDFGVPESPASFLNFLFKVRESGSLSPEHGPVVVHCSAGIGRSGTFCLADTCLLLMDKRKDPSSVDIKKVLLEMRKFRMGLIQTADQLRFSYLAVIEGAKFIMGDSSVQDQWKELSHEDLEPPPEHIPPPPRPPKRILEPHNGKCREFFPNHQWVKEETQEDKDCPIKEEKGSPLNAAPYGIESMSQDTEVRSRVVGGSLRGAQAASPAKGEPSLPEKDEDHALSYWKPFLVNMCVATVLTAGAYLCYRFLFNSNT

[2] = molecular target: T1, Tyrosine-protein phosphatase non-receptor type 1; test: Inhibition of human recombinant PTP1B by Lineweaver-Burke plot

IC50 [1] [µM]	Ki [2] [µM]	Compound
7.6		COc1cc(O)c2c3c1-c1c(O)cccc1[C@@H]1Oc4ccccc4[C@@H](CC2=O)[C@@H]31 [OHIOENSIN C]
3.5	1.5	O=C1C[C@]2(O)c3ccccc3O[C@H]3c4cc(O)ccc4-c4c(O)cc(O)c1c4[C@@H]32 [OHIOENSIN F]
5.6		O=C1c2c(O)cc(O)c3c2[C@@H]2[C@@H](c4ccccc4O[C@H]2c2cccc(O)c2-3)[C@H]1O [OHIOENSIN G]
4.3		O=C1C[C@@H]2c3ccccc3O[C@H]3c4cc(O)ccc4-c4c(O)cc(O)c1c4[C@H]23 [OHIOENSIN A]
